The values below come from paper PMC5118709, “Identification of Polo-like kinase 1 interaction inhibitors using a novel cell-based assay” (Scientific Reports, 2016).

As usually defined, the IC50 is the concentration needed to halve the response being measured. A higher IC50 goes with a need for much substance.

Assay [1] concerns the target GST-PBD367-603 of Plk1 (Homo sapiens, UniProt P53350). As to the kind of experiment: fluorescence polarization assay PBD-phosphopeptide. In general terms: In fluorescence polarisation assays a small probe gives low polarisation when free and higher when bound to something large.
Assay [2] concerns the target T1, Plk1-Map interaction (Homo sapiens, UniProt P53350). Nature of the assay: BRET Plk1-Map, stable HEK293T Plk1-Luc/GFP-Map cell line. The format is cell-based. Set-up: cDNAs for the human full length Plk1; expressed in transfected cells. Conditions: for Primary screen Plk1-Map (stable) % Inihibition / Primary screen Plk1-Map (stable) % Quench RLuc: 10-25 μM, 2 h; for Confirmation Plk1-Map (stable) % Inihibition / Confirmation Plk1-Map (stable) % Quench RLuc: confirmation screen. The text has this:
To develop a cell-based assay for the identification of Plk1 interaction inhibitors, we used Bioluminescence Resonance Energy Transfer (BRET)[42][43]. The assay monitors the interaction in HEK293T cells between Plk1 and Map205, a protein that we previously identified as an interactor of Drosophila Polo (Plk1 ortholog) on its PBD[44]. Although no ortholog of Drosophila Map205 has been found in vertebrates, this protein robustly interacts with vertebrate Plk1. […] Importantly, crystallography with zebrafish Plk1 has recently shown that Map205 nevertheless docks in the canonical phosphopeptide binding site of the PBD, with the natural phospho-mimetic Glu314 residue (Fig. 1A)[45]. In our assay, human Plk1 and a fragment of Drosophila Map205 (Map205_254-416 = Map) are respectively fused to Renilla luciferase II (Luc) and GFP10 (GFP), giving rise to energy transfer when the proteins are in close proximity (Fig. 1B). […] All combinations of Plk1 and Map tagged with Luc and GFP were tested (Supplementary Fig. S1). The Plk1-Luc/GFP-Map combination was selected because it yielded the highest BRET dynamic window. We then generated clonal stable cell lines co-expressing these two fusion proteins. These cell lines behaved very similarly to each other in BRET, and we selected one line that gave a high and reproducible BRET signal, with a Z′ score of 0.78, indicative of a robust assay for the purpose of a chemical screen (Supplementary Fig. S1).
(§1) We used our cell-based assay to screen a library of 112 983 compounds available in-house at IRIC’s High-Throughput Screening (HTS) platform (see Materials & Methods). Compounds were tested on cells in 384-well plates at concentrations between 10 μM and 25 μM, depending on their concentration in the original stocks solutions. BRET readings were taken 2 hours after treatment. Results obtained show a tight, close to normal distribution centered around zero inhibition relative to DMSO-treated controls (Fig. 1D). Compounds inducing at least 30% BRET inhibition were selected. From these, auto-fluorescent compounds and those that induced more than 90% reduction in RLucII luminescence were removed, leaving 800 primary hits, that we then re-tested using the same assay. In parallel, we tested these compounds in a control BRET assay for an unrelated pair of interacting proteins (BRAF-CRAF[46]) to exclude false-positive compounds that could reduce the BRET signal by interfering with light or by modifying the activity of GFP or Luc.
For BRET on transiently transfected cells, 48 hours after the transfection, medium was removed, cells were washed twice with PBS, and then Tyrode solution (140 mM NaCl, 2.7 mM KCl, 12 mM NaHCO3, 5.6 mM D-glucose, 0.49 mM MgCl2, 0.37 mM NaH2PO4, 25 mM HEPES, pH 7.4, where 1 mM CaCl2 was freshly added) was added to the cells. Total fluorescence was first measured using a FlexStation II microplate reader (Molecular Devices), where the GFP10 was excited at 400 nm and read at 510 nm. Then, cells were treated for 5 minutes with 2.5 μM coelenterazine 400a (Gold Technology) before reading BRET2 using the Mithras LB940 microplate reader (Berthold Technologies). BRET2 signal corresponds to the light emitted by the GFP10 acceptor constructs (515 nm ± 20 nm) divided by the light emitted by the RlucII donor constructs (400 nm ± 70 nm). Net BRET2 was calculated by subtracting the background BRET ratio of the RLucII plasmid alone from the BRET ratio obtained by the two BRET partners. The Net BRET2 was plotted according to the GFP10/RLucII ratio, which was obtained by dividing the total fluorescence by the RLucII emission.
For the high throughput chemical screen, cells were amplified and frozen as multiple 1 ml aliquots containing 25 millions of stable HEK293T Plk1-Luc/GFP-Map cells to ensure that cells at the same passage number are used during the screen. […] Five days later, cells were counted and re-suspended in Tyrode solution. […]
(In general: In BRET a luciferase serves as donor, and the signal depends on an acceptor being close.)

Assay [3] has as its target T1, Plk1-Map interaction. Nature of the assay: LUMIER co-immunoprecipitation assay Plk1-Map. Particulars: for Average-Beads (mean luminescence) / Co-IP Values relative to top in plate column = 1 / Luminescence on beads, duplicate wells: 10-25 μM, 2 h; for Relative Luminescence Unit: mean divided by maximum mean of the compounds; for Luminescence on beads, duplicate wells: raw data.
Description: After cell lysis, GFP-Plk1 was immunoprecipitated and co-purified Map-Luc was measured by luminescence following addition of the luciferase substrate, coelenterazine.
Half a million stably transfected Map205-RLucII/GFP10-Plk1 cells in Tyrode solution were seeded per well in a 96-well plate and allowed to settle for 30 min at 37 °C. […] Plates were then centrifuged at 4 °C at 3000 rpm for 5 minutes to pellet cells. Cells were then lysed with the IP buffer (20 mM Tris pH 7.5, 150 mM NaCl, 2 mM EGTA, 0.5% NP-40, 1 mM DTT, PMSF, aprotinin and leupeptin) and incubated on ice for 20 minutes. Plates were centrifuged again at 4 °C at 3400 rpm for 10 minutes, and the soluble fraction was transferred into a new 96-well plate. Note that 10 μl of this fraction was transferred in white 96-well plates from which the luminescence was read as a measure of the input amount of cell lysate for the co-IP. GFP-Plk1 was immunoprecipitated by adding 0.35 μl of anti-GFP antibody (Invitrogen). Plates were sealed and incubated on a rotator at 4 °C for 30 minutes. Then, 4 μl of pre-washed protein A magnetic beads (Invitrogen) were added to each well. Plates were sealed and incubated at 4 °C for 1h30. The extracts + beads were then transferred in a 96-well PCR plates and beads were washed 3 times with the IP buffer using a magnetic 96-well rack. The fourth wash was done in Tyrode solution, then beads were re-suspended with it and transferred in a white 96-well plate. […] Tyrode was also added to the plates containing the input fraction, then Coelenterazine h was added to the wells, and enhanced luminescence was read as described above.

The target of assay [4] is T2, CRAF-BRAF (Homo sapiens, UniProt P04049+P15056).
T2 construct: expressed in transfected cells; host or cells: HEK293T, transient transfection with PEI
Nature of the assay: control BRET CRAF-BRAF (transient). Conditions: for Primary screen CRAF-BRAF (transient) % Inihibition / Primary screen CRAF-BRAF (transient) % Quench RLuc: 10-25 μM; for Confirmation CRAF-BRAF (transient) % Inihibition / Confirmation CRAF-BRAF (transient) % Quench RLuc: confirmation screen. The format is cell-based. As for the experimental part: as §1
(§2) For the confirmation screen, the same procedure as for the primary screen was followed, except that HEK293T cells were also seeded at 6.25 millions of cells per simple CellStack on day 1 for transient transfections. These cells were transfected on day 3 with Luc-Map (5 μg) and Plk1-GFP (25 μg) pIRESHyg3 plasmids using polyethylenimine (PEI). To identify false-positives compounds, Luc-CRAF (4 μg) and GFP-BRAF (20 μg) plasmids were also transfected with PEI following the published procedure.

Assay [5] has as its target T1, Plk1-Map interaction. As to the kind of experiment: BRET Plk1-Map, transient Luc-Map/Plk1-GFP in HEK293T. The format is cell-based. More on the design: cDNAs for the human full length Plk1; expressed in transfected cells. Particulars: confirmation screen. As for the experimental part: as §2
Assay [6] deals with HeLa cells. As to the kind of experiment: mitotic index assay (phospho-Histone H3) in HeLa cells. The assay is classed as cell-based. Particulars: 10-25 μM, 7 h.

Where “and” joins values, the source holds several entries; their conditions need not be identical. Identical values can stand only once.

T2 sequence (P04049 whole entry): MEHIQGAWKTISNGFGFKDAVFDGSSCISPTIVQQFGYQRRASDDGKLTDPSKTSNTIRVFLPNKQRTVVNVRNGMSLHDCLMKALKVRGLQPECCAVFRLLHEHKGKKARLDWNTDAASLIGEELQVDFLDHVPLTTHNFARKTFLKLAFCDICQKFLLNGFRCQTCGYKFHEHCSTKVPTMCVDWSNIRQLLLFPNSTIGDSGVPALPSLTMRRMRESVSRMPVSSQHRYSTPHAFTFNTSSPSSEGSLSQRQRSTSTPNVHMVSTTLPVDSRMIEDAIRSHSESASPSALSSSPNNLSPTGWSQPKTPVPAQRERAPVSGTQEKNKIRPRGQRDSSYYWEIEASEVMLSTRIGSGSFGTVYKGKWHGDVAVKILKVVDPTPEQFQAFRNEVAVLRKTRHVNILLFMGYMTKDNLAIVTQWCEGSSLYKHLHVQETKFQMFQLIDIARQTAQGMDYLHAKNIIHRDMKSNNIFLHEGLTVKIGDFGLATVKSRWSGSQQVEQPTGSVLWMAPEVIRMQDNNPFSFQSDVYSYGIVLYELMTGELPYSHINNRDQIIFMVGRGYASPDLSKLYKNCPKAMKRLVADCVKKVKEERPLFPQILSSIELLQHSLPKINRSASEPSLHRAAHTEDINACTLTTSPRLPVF
T2 sequence (P15056 whole entry): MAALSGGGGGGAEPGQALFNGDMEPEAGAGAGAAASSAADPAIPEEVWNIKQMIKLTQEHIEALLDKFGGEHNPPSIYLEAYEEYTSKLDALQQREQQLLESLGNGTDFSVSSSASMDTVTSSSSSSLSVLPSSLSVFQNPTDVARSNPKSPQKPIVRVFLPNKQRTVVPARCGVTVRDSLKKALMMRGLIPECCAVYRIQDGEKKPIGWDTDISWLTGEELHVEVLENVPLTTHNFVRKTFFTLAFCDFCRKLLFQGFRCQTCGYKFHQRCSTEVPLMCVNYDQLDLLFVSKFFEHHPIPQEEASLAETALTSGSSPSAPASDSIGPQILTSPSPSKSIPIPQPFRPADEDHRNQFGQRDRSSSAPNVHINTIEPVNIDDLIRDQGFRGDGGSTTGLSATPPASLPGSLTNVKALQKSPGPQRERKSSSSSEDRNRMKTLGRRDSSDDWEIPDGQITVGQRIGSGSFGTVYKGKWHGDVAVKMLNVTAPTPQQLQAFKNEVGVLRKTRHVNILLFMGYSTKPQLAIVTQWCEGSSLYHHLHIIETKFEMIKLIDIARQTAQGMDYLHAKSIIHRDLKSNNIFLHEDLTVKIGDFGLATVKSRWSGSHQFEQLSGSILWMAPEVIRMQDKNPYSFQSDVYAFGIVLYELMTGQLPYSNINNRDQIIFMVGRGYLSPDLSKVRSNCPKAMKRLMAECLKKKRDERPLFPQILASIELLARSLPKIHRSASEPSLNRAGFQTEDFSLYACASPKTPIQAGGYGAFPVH
T1 sequence (P53350 whole entry): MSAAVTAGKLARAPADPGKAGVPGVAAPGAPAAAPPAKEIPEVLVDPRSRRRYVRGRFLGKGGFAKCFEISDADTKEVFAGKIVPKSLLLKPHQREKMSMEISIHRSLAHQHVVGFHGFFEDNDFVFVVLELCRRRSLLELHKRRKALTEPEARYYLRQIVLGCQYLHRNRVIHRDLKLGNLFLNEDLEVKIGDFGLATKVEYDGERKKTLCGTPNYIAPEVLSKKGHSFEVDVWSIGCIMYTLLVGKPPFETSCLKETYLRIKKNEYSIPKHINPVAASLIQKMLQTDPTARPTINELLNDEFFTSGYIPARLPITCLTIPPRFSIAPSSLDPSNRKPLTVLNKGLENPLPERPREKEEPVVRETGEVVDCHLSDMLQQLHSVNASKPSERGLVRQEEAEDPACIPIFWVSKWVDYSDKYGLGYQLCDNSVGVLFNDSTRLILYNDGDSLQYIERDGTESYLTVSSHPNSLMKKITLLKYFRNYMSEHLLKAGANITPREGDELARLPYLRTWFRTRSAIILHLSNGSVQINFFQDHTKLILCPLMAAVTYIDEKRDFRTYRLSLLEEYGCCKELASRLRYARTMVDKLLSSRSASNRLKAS
GST-PBD367-603 of Plk1, sequence (P53350 367-603): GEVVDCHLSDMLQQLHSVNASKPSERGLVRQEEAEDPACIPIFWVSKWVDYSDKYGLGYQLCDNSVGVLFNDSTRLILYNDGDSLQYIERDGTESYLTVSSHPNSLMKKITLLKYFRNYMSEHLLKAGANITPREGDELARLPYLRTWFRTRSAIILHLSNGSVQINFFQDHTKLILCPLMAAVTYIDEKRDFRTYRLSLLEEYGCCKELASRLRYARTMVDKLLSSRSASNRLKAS

`N#Cc1cccnc1S(=O)(=O)CCOC(=O)c1cccc(Cl)c1` [Cpd 15] returned a half-inhibitory concentration (IC50) in assay [1] (FP - IC50 (μM), Table S3) of 5.7 ± 2.8 µM. Half-maximal inhibition in assay [1] (IC50 in FP, GST-PBD367-603 38 nM, 1 h pre-incubation, FITC-phosphopeptide 10 nM, Fig. 4C) (IC50) required 6 µM. Also, in assay [2], the “Primary screen Plk1-Map (stable) % Inihibition” value is given as 67.91%, the “Primary screen Plk1-Map (stable) % Quench RLuc” value is on record as 84.93%, the “Confirmation Plk1-Map (stable) % Inihibition” value was 41.55% and the “Confirmation Plk1-Map (stable) % Quench RLuc” value is 78.03%. Moreover, in assay [3], the “Average-Beads (mean luminescence)” value is 18,942; the “Co-IP Values relative to top in plate column = 1” value came out at 0.017; the “Relative Luminescence Unit” value was 0.017; the “Luminescence on beads, duplicate wells” value was 18,060 and 19,824. In assay [4], the “Primary screen CRAF-BRAF (transient) % Inihibition” value came to 31.50%, the “Primary screen CRAF-BRAF (transient) % Quench RLuc” value stood at 81.13%, the “Confirmation CRAF-BRAF (transient) % Inihibition” value was -4.59% and the “Confirmation CRAF-BRAF (transient) % Quench RLuc” value came to 86.14%. In assay [5], the “Confirmation Plk1-Map (transient) % Inihibition” value is recorded as 53.01% and the “Confirmation Plk1-Map (transient) % Quench RLuc” value was determined as 72.97%. In assay [6], the “Mitotic index (%)” value turned out to be 0.81%.

Take `COc1ccc(-c2oc3ccccc3c(=O)c2OS(=O)(=O)c2ccccc2)cc1` [Cpd 46]: in assay [2], the “Primary screen Plk1-Map (stable) % Inihibition” value is 53.18%, the “Primary screen Plk1-Map (stable) % Quench RLuc” value worked out at 82.37%, the “Confirmation Plk1-Map (stable) % Inihibition” value is listed as 30.35% and the “Confirmation Plk1-Map (stable) % Quench RLuc” value turned out to be 91.04%. Also, in assay [3], the “Average-Beads (mean luminescence)” value is on record as 601,974; the “Co-IP Values relative to top in plate column = 1” value was determined as 0.219; the “Relative Luminescence Unit” value is reported as 0.219; the “Luminescence on beads, duplicate wells” value was 584,340 and 619,608. In assay [4], the “Primary screen CRAF-BRAF (transient) % Inihibition” value is 16.40%, the “Primary screen CRAF-BRAF (transient) % Quench RLuc” value amounted to 63.54%, the “Confirmation CRAF-BRAF (transient) % Inihibition” value amounted to 19.45% and the “Confirmation CRAF-BRAF (transient) % Quench RLuc” value was 66.12%. In addition, in assay [5], the “Confirmation Plk1-Map (transient) % Inihibition” value was -29.25% and the “Confirmation Plk1-Map (transient) % Quench RLuc” value stood at 72.57%. The “Mitotic index (%)” value in assay [6] worked out at 29.44%.
